Key:
[1] = target: T1, human TRPA1 (Homo sapiens (Human), UniProt O75762); experiment: Measurement of TRPA1 antagonist activity (2): as (1), different lot of human TRPA1 expression plasmid; format: cell-based; conditions: 293T cells transfected with human TRPA1, allylisothiocyanate 20 μM stimulation, calcium fluorescence, read-out: hTRPA1 IC50
In short: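 HEK293T cells transiently transfected with human TRPA1 plasmid (different lot), loaded with Calcium4 dye in HBSS/20 mM HEPES pH 7.2. Test compound preincubated 10 min, then allylisothiocyanate added at 20 μM final and fluorescence change read for 5 min. IC50 from sigmoid fit of inhibition relative to AITC-alone and buffer controls.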

[2] = target: T1, human TRPA1; experiment: Measurement of TRPA1 antagonist activity (1): intracellular calcium increase; format: cell-based; conditions: 293T cells transfected with human TRPA1 expression plasmid; allylisothiocyanate 20 μM stimulation; intracellular calcium fluorescence; read-out: hTRPA1 IC50
In short: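 Calcium-flux readout of TRPA1 block: compound given 10 min before 20 μM (final) allylisothiocyanate, fluorescence tracked 5 min. Cells were 293T transiently expressing human TRPA1, dye-loaded 1 hr in HBSS, 20 mM HEPES, pH 7.2. Inhibition scaled between agonist-only and buffer-only responses; IC50 by sigmoid fitting.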

T1 sequence (O75762 whole entry): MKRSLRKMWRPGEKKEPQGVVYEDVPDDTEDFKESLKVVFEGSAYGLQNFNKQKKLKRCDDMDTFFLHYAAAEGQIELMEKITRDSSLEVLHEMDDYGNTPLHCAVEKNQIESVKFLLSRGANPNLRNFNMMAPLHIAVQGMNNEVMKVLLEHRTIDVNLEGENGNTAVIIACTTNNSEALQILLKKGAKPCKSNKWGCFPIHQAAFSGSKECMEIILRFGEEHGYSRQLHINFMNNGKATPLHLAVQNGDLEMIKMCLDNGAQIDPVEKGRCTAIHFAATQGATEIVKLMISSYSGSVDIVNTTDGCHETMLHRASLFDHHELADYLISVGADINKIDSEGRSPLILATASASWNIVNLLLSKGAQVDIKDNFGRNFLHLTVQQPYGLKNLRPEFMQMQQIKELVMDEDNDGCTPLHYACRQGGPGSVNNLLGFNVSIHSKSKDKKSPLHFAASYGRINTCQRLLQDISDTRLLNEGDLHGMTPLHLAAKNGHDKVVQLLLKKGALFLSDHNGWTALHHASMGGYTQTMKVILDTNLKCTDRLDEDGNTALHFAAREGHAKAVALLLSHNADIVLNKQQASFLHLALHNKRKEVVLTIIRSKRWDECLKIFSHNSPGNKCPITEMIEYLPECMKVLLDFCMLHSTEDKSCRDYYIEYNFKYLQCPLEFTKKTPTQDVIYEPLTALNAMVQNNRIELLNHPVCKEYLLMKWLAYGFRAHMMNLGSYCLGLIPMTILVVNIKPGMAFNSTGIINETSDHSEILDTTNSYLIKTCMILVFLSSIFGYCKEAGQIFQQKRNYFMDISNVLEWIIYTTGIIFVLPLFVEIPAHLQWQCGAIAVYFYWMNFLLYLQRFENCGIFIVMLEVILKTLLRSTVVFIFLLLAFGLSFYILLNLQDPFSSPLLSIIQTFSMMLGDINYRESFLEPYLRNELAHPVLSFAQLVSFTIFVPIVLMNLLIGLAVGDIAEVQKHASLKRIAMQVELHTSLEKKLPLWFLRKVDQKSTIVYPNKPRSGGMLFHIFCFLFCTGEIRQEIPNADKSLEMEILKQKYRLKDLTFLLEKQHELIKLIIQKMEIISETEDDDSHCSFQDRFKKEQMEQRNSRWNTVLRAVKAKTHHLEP

For O=C(NCc1cc(-c2ccc(C(F)(F)F)cn2)ccn1)[C@@H]1CCCN1S(=O)(=O)c1cc2ccccc2o1 [Example 179, (2S)-1-(benzofuran-2-ylsulfonyl)-N-[[4-[5-(trifluoromethyl)-2-pyridyl]-2-pyridyl]methyl]pyrrolidine-2-carboxamide], which IC50 [1] is on record?
Its IC50 is 4.1 nM.

And the IC50 [2]?
Its IC50 is 1.3 nM.

With C[C@H](NS(=O)(=O)c1cc2cc(F)ccc2o1)C(=O)NCc1cc(-c2ccc(C(F)(F)F)nc2)ncn1 [Example 191, (2S)-2-[(5-fluorobenzofuran-2-yl)sulfonylamino]-N-[[6-[6-(trifluoromethyl)-3-pyridyl]pyrimidin-4-yl]methyl]propanamide] as the molecule, how does the IC50 [1] read?
Its IC50 is 35 nM.

What about the IC50 [2] of the same molecule?
Its IC50 is 12 nM.

Source: patent US10626112B2, “Heterocyclic sulfonamide derivative and medicine comprising same” (EA PHARMA CO., LTD., priority 2014, dated 2020)
